Test results taken from ChEMBL document CHEMBL1156829 (Proc Natl Acad Sci U S A, 2008).

Columns and labels:
[1] = NOVARTIS: Cytotoxicity against human hepatocellular carcinoma cell line (Huh7); type: toxicity, cell-based, Huh-7; details: Huh7 cells (hepatocellular carcinoma cell line)
Plasmodium falciparum [2] = experiment: NOVARTIS: Inhibition of Plasmodium falciparum W2 (drug-resistant) proliferation in erythrocyte-based infection assay; type: functional, organism-based; details: Plasmodium falciparum, W2; read-out: EC50
Plasmodium falciparum [3] = experiment: NOVARTIS: Inhibition of Plasmodium falciparum 3D7 (drug-susceptible) proliferation in erythrocyte-based infection assay; type: functional, organism-based; details: Plasmodium falciparum, 3D7

Structure (SMILES)	CC50 [1]	EC50 (Plasmodium falciparum [2])	EC50 (Plasmodium falciparum [3])
O=C(Nc1ccc(Cl)c(Cl)c1)Nc1ccc(Cl)c(Cl)c1	20200 nM	460 nM	1030 nM
Cc1ccc(S(=O)(=O)NC(=O)Nc2ccc(N(C)C)cc2)cc1	20400 nM	467 nM	324 nM
CCN1/C(=C/c2sc3ccccc3[n+]2CC)C=Cc2cc(NC(C)=O)ccc21	> 10000 nM	225 nM	255 nM
O=[N+]([O-])c1ccc(C=NNc2nc(Nc3ccccc3)nc(Nc3ccccc3)n2)o1	20700 nM	454 nM	625 nM
COc1ccc(OCC(=O)Nc2cccc(NC(=O)COc3ccc(OC)cc3)n2)cc1	> 100000 nM	2290 nM	6840 nM
O=C(c1ccc(-n2c(SCc3ccc(Cl)cc3)nc3ccccc3c2=O)cc1)N1CCOCC1	> 100000 nM	2280 nM	> 12500 nM
COc1cc(OC)nc(C(Sc2ccc(NC(=O)c3cccs3)cc2)c2ccccc2)n1 (stereo not given)	> 10000 nM	224 nM	175 nM
CCN1CCN(c2cc(C)c3cc(NC(=O)c4ccc(OC)c([N+](=O)[O-])c4)ccc3n2)CC1	15400 nM	344 nM	273 nM
CCOC(=O)C1=C(c2ccccc2)N=c2sc(=Cc3cc(C)n(-c4ccc(F)cc4)c3C)c(=O)n2C1c1cccc(OC)c1OC (stereo not given)	> 100000 nM	2280 nM	2320 nM
CN1CCN(NC=C2C(=O)N(c3nc4ccccc4s3)N=C2c2ccccc2)CC1	> 100000 nM	2300 nM	> 12500 nM
COc1ccc(C=C2SC(=N)N(c3ccc4c(c3)OCO4)C2=O)cc1OC	> 100000 nM	2280 nM	> 9750 nM
O=[N+]([O-])c1ccc(-c2ccc(C=NNc3ccccn3)o2)cc1	> 100000 nM	2300 nM	2430 nM
COc1ccc([N+](=O)[O-])cc1-c1ccc(C=C(C#N)c2nn(CCO)c(N)c2C#N)o1	> 100000 nM	2290 nM	> 12500 nM
COc1ccccc1/C=C/C1=NC(=C\c2ccc(SC)cc2)/C(=O)O1	> 10000 nM	228 nM	> 1250 nM
FC(F)(F)c1ccccc1CN1CCc2nc(N3CCCCC3)sc2C1	> 10000 nM	228 nM	253 nM
O=C(NCc1ccc(Cl)cc1)C1CNCC1c1ccc(C(F)(F)F)cc1 (stereo not given)	18200 nM	412 nM	392 nM
COc1ccccc1CNC(=O)C1c2ccccc2C(=O)N2CCc3ccccc3C12 (stereo not given)	> 100000 nM	2250 nM	4900 nM
CN(CCCNc1ccnc2cc(Cl)ccc12)C(=O)C(C)(C)C	> 10000 nM	225 nM	203 nM

Structure (SMILES)	CC50 [1]	EC50 (Plasmodium falciparum [2])	EC50 (Plasmodium falciparum [3])
CC1CN(C(=O)CCCSc2nnc(Cc3ccccc3)n2-c2ccc(Cl)c(Cl)c2)CC(C)O1 (stereo not given)	> 100000 nM	2230 nM	> 12500 nM
Cc1ccc(NC(=O)c2sc3nc4c(c(-c5cccs5)c3c2N)CCCC4)cc1	> 100000 nM	2220 nM	442 nM
CC(C)NC(=O)c1cn(Cc2ccccc2)cc(C(=O)NCCc2nc3ccccc3[nH]2)c1=O	> 100000 nM	2220 nM	3340 nM
Cc1ccc2nc3nc4c(C)cccc4c(N)c3cc2c1	6940 nM	157 nM	102 nM
Oc1ccc(Cl)cc1C1CC(c2ccc(Cl)cc2)=NC(c2ccc(Cl)cc2)N1 (stereo not given)	34700 nM	783 nM	813 nM
CC(=O)Nc1cccc(-c2cncc(-c3ccc(C(=O)O)cc3)n2)c1	> 100000 nM	2250 nM	1150 nM
Brc1cccc(CNC2CCN(CCc3ccccc3)CC2)c1	22900 nM	515 nM	310 nM
C=CCOc1cccc(C(Nc2cccc(C)n2)c2ccc3cccnc3c2O)c1 (stereo not given)	> 69400 nM	1560 nM	5750 nM
CN1C=CC=C/C1=C\C=C1\C=Nc2ccccc21	> 10000 nM	223 nM	276 nM
c1ccc(-c2cc(N3CCC4(CC3)OCCO4)nc(-c3ccccn3)n2)nc1	> 10000 nM	223 nM	420 nM
CCCN1CCC(N2C[C@@H](NCCC3=C(C)CCCC3(C)C)C[C@H]2C(=O)NCC)CC1	35100 nM	765 nM	2340 nM
Cc1c[nH]c(CCNCc2ccc(OCC(O)CN(C)Cc3ccccc3)cc2)n1 (stereo not given)	54800 nM	1190 nM	1480 nM
CCCC(=O)Oc1ccccc1-c1nc2ccccn2c1NC(C)(C)CC(C)(C)C	1960 nM	44 nM	793 nM
CC1=C(CC(=O)c2ccc(Cl)cc2)C(=O)c2ccccc2C1=O	46600 nM	1020 nM	2740 nM
COc1ccc2nc(C)cc(Nc3cccc(Cl)c3)c2c1	50200 nM	1100 nM	371 nM
CC12CCC(CN(CC(O)Cn3c4ccc(Br)cc4c4cc(Br)ccc43)C1)C2(C)C (stereo not given)	> 100000 nM	2200 nM	2960 nM
O=C(Cn1ccc(=NCc2ccccc2)cc1)c1ccc(I)cc1	20800 nM	448 nM	308 nM
